In patent US10947252B2, “Inhibitors of KEAP1-Nrf2 protein-protein interaction” (Janssen Pharmaceutica NV, priority 2018, dated 2021) one finds EC50 data, which are given here for 13 compounds.

Each structure is given as a SMILES string.

This experiment concerns Glo-Response ARE-luc2P HEK293 cell line. Description: ARE luciferase reporter cell-based assay.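 Further: luciferase signal tracks Nrf2 activation of the ARE once compounds disrupt KEAP1-Nrf2 binding, read with One-Glo reagent, DMSO serving as low control.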 As to conditions: Homo sapiens, HEK293, 24 h, average of results obtained.

Protocol: The ARE assay utilizes a luciferase reporter cell line where the signal is proportional to NrF2 activation of the ARE. The cell line is commercially available from Promega and was prepared by stably transfecting HEK293 cells with a vector (pGL4.11) which contains the ARE response element upstream of a minimal promoter. The promoter drives expression of luc2 firefly luciferase gene. Upon disruption of KEAP1-Nrf2 binding by compound, Nrf2 translocates into the nucleus where it binds to the ARE and activates transcription of luciferase.
The materials used in this ARE assay are as follows: Glo-Response ARE-luc2P HEK293 cell line and One-Glo Luciferase Assay System were purchased from Promega (Madison, Wis.). Dulbecco's Modified Eagle medium ((DMEM), low glucose, GlutaMAX, pyruvate), fetal bovine serum (certified, heat inactivated), hygromycin B, Dulbecco's phosphate-buffered saline were purchased from Life Technologies (Grand Island, N.Y.). Penicillin, streptomycin solution (100×) and 0.05% trypsin-EDTA were purchased from Corning (Manassas, Va.). DMSO was purchased from EMD Millipore.
The ARE assay protocol is as follows: cells were maintained in growth medium (DMEM+10% FBS, 200 μg/mL hygromycin B, p-s) between 20-90% confluency by splitting twice per week. One day before the assay, cells were trypsinized, counted to determine viable cell count, and re-suspended in assay medium (DMEM+10% FBS, p-s) at 250,000 cells/mL. […] 100% DMSO was used as the low control. A 11-point dose series of the control compound was included on every plate. Compounds were spotted to an intermediate plate (Greiner #781280 V-bottom 384 well plate) using the Echo acoustic dispenser (Labscyte San Jose, Calif.). Spot size was 240 nL.
On the day of the assay, 60 mL per well of assay medium was added to the pre-spotted plate to make 2× compound stocks using the Combi (Thermo Waltham, Mass.). Compound and medium were mixed on the Janus and 20 mL of 2×compound stock was added to the cell plate which already contained 20 mL of assay medium from cell plating. […] The plates were returned to the tissue culture incubator for 24 hours.
The next day, luciferase activity was measured according to the manufacturer's protocol for One-Glo luciferase reagent. The plates were removed from the incubator and allowed to equilibrate to room temperature for 30 min. Forty microliters of One-Glo reagent (equilibrated to room temperature) was added per well using the Combi. The plates were mixed on an orbital shaker for 3 min. Luminescence was read on the BMG Pherastar multiplate reader (Cary, N.C.) using the luminescence protocol (1 sec interval).
The dose-response data were analyzed in Genedata Screener using 4PL nonlinear regression model. Raw luminescence counts as well as normalized values were used for data analysis.

For `CCn1nnc2c(C)c([C@H](CC(=O)O)c3ccc(C)c(CN4CC(C)(C)Oc5ccccc5S4(=O)=O)c3)ccc21` (single isomer, unassigned) [Example 159, (*R)-3-(3-((4,4-Dimethyl-1,1-dioxido-3,4-dihydro-2H-benzo[b][1,4,5]oxathiazepin-2-yl)methyl)-4-methylphenyl)-3-(1-ethyl-4-methyl-1H-benzo[d][1,2,3]triazol-5-yl)propanoic Acid], the EC50 amounted to 34 nM.

Turning to `Cc1ccc([C@H](CC(=O)O)c2ccn3c(C(F)(F)F)nnc3c2C)cc1CN1C[C@H]2CCCCN2c2ncc(F)cc2S1(=O)=O` (relative stereo) [Example 310, (*S)-3-(3-(((*R)-3-fluoro-5,5-dioxido-7,7a,8,9,10,11-hexahydro-6H-dipyrido[2,1-d:2′,3′-f][1,2,5]thiadiazepin-6-yl)methyl)-4-methylphenyl)-3-(8-methyl-3-(trifluoromethyl)-[1,2,4]triazolo[4,3-a]pyridin-7-yl)propanoic Acid], the EC50 amounted to 3 nM.

For `Cc1cc2cc([C@@H](c3ccc(C)c(CN4CC5(CCOCC5)Oc5nc(OCCN6CCCCC6)c(C)cc5S4(=O)=O)c3)C(C)(C)C(=O)O)n(C)c2nn1` (single isomer, unassigned) [Example 348, (*S)-3-(3,7-Dimethyl-7H-pyrrolo[2,3-c]pyridazine-6-yl)-2,2-dimethyl-3-(4-methyl-3-((8′-methyl-1′,1′-dioxido-7′-(2-(piperidine-1-yl)-ethoxy)2,3,5,6-tetrahydrospiro[pyran-4,4′-pyrido[2,3-b][1,4,5]oxathiazepin]-2′,(3′H)-yl)methyl)phenyl)propanoic Acid], the EC50 was found to be 19.2 nM. Against the preceding compound, the EC50 is about 6.4-fold higher.

As to `Cc1ccc([C@H](CC(=O)O)c2ccn3c(C(F)(F)F)nnc3c2C)cc1CN1CC2(CCOCC2)Oc2ncc(F)cc2S1(=O)=O` (single isomer, unassigned) [Example 414, (*S)-3-(3-((8′-fluoro-1′,1′-dioxido-2,3,5,6-tetrahydrospiro[pyran-4,4′-pyrido[2,3-b][1,4,5]oxathiazepin]-2′(3′H)-yl)methyl)-4-methylphenyl)-3-(8-methyl-3-(trifluoromethyl)-[1,2,4]triazolo[4,3-a]pyridin-7-yl)propanoic Acid], the midpoint of the response, the EC50, lay at 11 nM.

For `Cc1cnc([C@H](c2ccn3c(C(F)F)nnc3c2C)C(C)(C)C(=O)O)cc1CN1CC2(CC2)Oc2nc(OCCN3CCCCC3)c(C)cc2S1(=O)=O` (single isomer, unassigned) [Example 637, (*R)-3-(3-(Difluoromethyl)-8-methyl-[1,2,4]triazolo[4,3-a]pyridin-7-yl)-2,2-dimethyl-3-(5-methyl-4-((8′-methyl-1′,1′-dioxido-7′-(2-(piperidin-1-yl)ethoxy)spiro[cyclopropane-1,4′-pyrido[2,3-b][1,4,5]oxathiazepin]-2′(3′H)-yl)methyl)pyridin-2-yl)propanoic Acid], the response was half-maximal at 615 nM (EC50).

With `Cc1cnc2c(c1)S(=O)(=O)N(Cc1cc([C@@H](CC(=O)O)c3ccn4c(C(F)F)nnc4c3C)ccc1C)C[C@@H]1CCCCN21` (stereo in doubt) [Example 501, (*R)-3-(3-(Difluoromethyl)-8-methyl-[1,2,4]triazolo[4,3-a]pyridin-7-yl)-3-(4-methyl-3-(((*S)-3-methyl-5,5-dioxido-7,7a,8,9,10,11-hexahydro-6H-dipyrido[2,1-d:2′,3′-f][1,2,5]thiadiazepin-6-yl)methyl)phenyl)propanoic Acid], the EC50 came to 34.5 nM.

For `CCn1nnc2c(C)c(C(CC(=O)O)c3ccc(C)c(CN4C[C@H]5CCCN5c5ccccc5S4(=O)=O)c3)ccc21` (mixture of isomers) [Example 152, (R/S)-3-(3-(((R)-5,5-Dioxido-7a,8,9,10-tetrahydrobenzo[f]pyrrolo[2,1-d][1,2,5]thiadiazepin-6(7H)-yl)methyl)-4-methylphenyl)-3-(1-ethyl-4-methyl-1H-benzo[d][1,2,3]triazol-5-yl)propanoic Acid], the EC50 was 6.5 nM. This EC50 lies about 5.3-fold lower than the previous one.

For the compound `CCn1nnc2c(C)c([C@@H](CC(=O)O)c3ccc(C)c(CN4C[C@@H]5CCCN5c5ccccc5S4(=O)=O)c3)ccc21` (relative stereo) [Example 148, (*S)-3-[3-[(5,5-Dioxo-7a,8,9,10-tetrahydro-7H-pyrrolo[2,1-d][1,2,5]benzothiadiazepin-6-yl)methyl]-4-methyl-phenyl]-3-(1-ethyl-4-methyl-benzotriazol-5-yl)propanoic Acid], the EC50 is 15 nM.

The compound `Cc1ccc([C@H](CC(=O)O)c2ccn3c(C(F)F)nnc3c2C)cc1CN1C[C@@H]2CCCCN2c2ncc(C#N)cc2S1(=O)=O` (relative stereo) [Example 31, (*S)-3-(3-(((*S)-3-Cyano-5,5-dioxido-7,7a,8,9,10,11-hexahydro-6H-dipyrido[2,1-d:2′,3′-f][1,2,5]thiadiazepin-6-yl)methyl)-4-methylphenyl)-3-(3-(difluoromethyl)-8-methyl-[1,2,4]triazolo[4,3-a]pyridin-7-yl)propanoic Acid] yielded a half-maximal effective concentration (EC50) of 9.9 nM.

`Cc1ccc([C@H](CC(=O)O)c2ccn3c(C(F)(F)F)nnc3c2C)nc1CN1C[C@H]2CCCCN2c2ncc(Cl)cc2S1(=O)=O` (relative stereo) [Example 522, (*R)-3-(6-(((*R)-3-Chloro-5,5-dioxido-7,7a,8,9,10,11-hexahydro-6H-dipyrido[2,1-d:2′,3′-f][1,2,5]thiadiazepin-6-yl)methyl)-5-methylpyridin-2-yl)-3-(8-methyl-3-(trifluoromethyl)-[1,2,4]triazolo[4,3-a]pyridin-7-yl)propanoic Acid] gave an EC50 of 5.06 nM.

`Cc1c([C@H](CC(=O)O)c2ccc(Cl)c(CN3CC4(COC4)Oc4ccccc4S3(=O)=O)c2)ccn2c(C(F)(F)F)nnc12` (single isomer, unassigned) [Example 96, (*R)-3-(4-Chloro-3-((1′,1′-dioxoidospiro[benzo[b]]oxethiazepine-4,3′-oxetan]-2(3H)-yl)methyl)phenyl)-3-(8-methyl-3-(trifluoromethyl)-[1,2,4]triazolo[4,3-a]pyridine-7-yl)propanoic Acid] showed a half-maximal effective concentration (EC50) of 491 nM.

The compound `Cc1cc2cc([C@H](c3ccc(C)c(CN4CC5(CCOCC5)Oc5nc(OCCN6CCCCC6)c(C)cc5S4(=O)=O)c3)C(C)(C)C(=O)O)n(C)c2nn1` (single isomer, unassigned) [Example 349, (*R)-3-(3,7-Dimethyl-7H-pyrrolo[2,3-c]pyridazine-6-yl)-2,2-dimethyl-3-(4-methyl-3-((8′-methyl-1′,1′-dioxido-7′-(2-(piperidine-1-yl)-ethoxy)2,3,5,6-tetrahydrospiro[pyran-4,4′-pyrido[2,3-b][1,4,5]oxathiazepin]-2′,(3′H)-yl)methyl)phenyl)propanoic Acid] showed a 50% effective concentration (EC50) of 1540 nM.

For the compound `Cc1ccc(C(c2ccn3c(C(F)(F)F)nnc3c2)C(C)(C)C(=O)O)cc1CN1CC2(CCOCC2)Oc2ncccc2S1(=O)=O` (stereo not shown) [Example 319, 3-(3-((1′,1′-Dioxido-2,3,5,6-tetrahydrospiro[pyran-4,4′-pyrido[2,3-b][1,4,5]oxathiazepin]-2′(3′H)-yl)methyl)-4-methylphenyl)-2,2-dimethyl-3-(3-(trifluoromethyl)-[1,2,4]triazolo[4,3-a]pyridin-7-yl)propanoic Acid], a half-maximal effect (EC50) was put at 44.5 nM.
